# According to publication PMC12035797, “Peptidomimetics Activating the Proteasome: A New Perspective for Parkinson’s Treatment” (Journal of Medicinal Chemistry, 2025):
# Experiments:
# [1] = system: endogenous α-synuclein in primary cortical cultures; experiment: Endogenous α-synuclein level in primary cortical cultures (Simple Western Jess); type: cell-based, mouse; settings: 2.5 μM, 7 days; statistical significance only for 1g
# Experimental: The effectiveness of the compounds has also been examined by using proteins as substrates. By means of SDS-PAGE electrophoresis, we checked the extent to which model proteins were digested by the 20S proteasome alone and after its stimulation by 10 μM modulators. […] After incubation with the enzyme in the presence of each modulator, less than 40% of synuclein remained. […] All animal experiments were performed following the protocols evaluated and approved by the Laboratory Animal Centre of the University of Helsinki (Ethics Approval License KEK24-013) and in accordance with the European Community Guidelines (Directive 2010/63/EU). […] The viability and number of neuronal cells were calculated automatically in an Automated Cell Counter (Bio-Rad), plated at a density of 1,000,000 cells per well on 6-well plates and cultured in Neurobasal A Medium (Thermo Fisher Scientific (Gibco), #12349015, Waltham, MA, USA) supplemented with GlutaMAX (Thermo Fisher Scientific (Gibco) #A1286001, Waltham, MA, USA), B-27 Supplement (Thermo Fisher Scientific (Gibco), #17504001, Waltham, MA, USA), and 200 ng/mL Primocin (Invitrogen, ant-pm-1, San Diego, CA, USA). […] Protein concentrations in the cell lysates were determined using a bicinchoninic acid (BCA) assay (Sigma-Aldrich, 3B9643-1L-KC, MO, USA) according to the manufacturer’s instructions. […]
# hippocampal cells = experiment: Survival of hippocampal cells after 7 days with activators (PFF model); type: cell-based, mouse; settings: 0.5 and 2.5 μM, PFF-treated
# Text: Encouraged by the results received, we tested the ability of the modulator-CPP constructs to increase α-synuclein degradation in a cell model using primary mouse neuronal cells. The presence of Lewy-like neurites and Lewy-like bodies containing aggregated α-synuclein with phosphorylated serine 129 (pS129-αsyn) is a characteristic feature of the brains of people with Parkinson’s disease. To mimic these aggregations, we introduced a solution of preformed fibrils (PFFs) to the media of neuronal cells, which led to the induction of α-synuclein phosphorylation and its aggregation in neurons isolated from mouse embryos. PFFs are purified, prion-like fibrils of α-synuclein that are produced by expressing a recombinant monomeric protein in bacteria. Seven days after PFFs are introduced to the cells, large aggregates are visible in the cell soma, often next to the cell nucleus. We added the PFF solution to the hippocampal cells, and after an hour of incubation, we introduced solutions of the activator. After 7 days, we immunostained neuronal cells using a monoclonal antibody against the NeuN protein, which is commonly used in neuronal differentiation studies to assess their functional status. Additionally, we stained the nuclei of all incubated cells with DAPI. […]
structure (smiles),measurement,setting,value
C[C@@H](O)[C@H](NC(=O)[C@H](Cc1ccccc1)NC(=O)[C@H](Cc1ccc(O)cc1)NC(=O)CN(CCCCN)C(=O)[C@H](CCCNC(=N)N)NC(=O)[C@H](CCCNC(=N)N)NC(=O)[C@H](CCCNC(=N)N)NC(=O)[C@H](CCC(N)=O)NC(=O)[C@H](CCCNC(=N)N)NC(=O)[C@H](CCCNC(=N)N)NC(=O)[C@H](CCCCN)NC(=O)[C@H](CCCCN)NC(=O)[C@@H](N)CCCNC(=N)N)C(=O)NCC(=O)N[C@@H](CO)C(=O)N[C@@H](CCCCN)C(=O)N[C@@H](CC(=O)O)C(=O)N[C@@H](Cc1c[nH]c2ccccc12)C(=O)N[C@@H](CCCNC(=N)N)C(=O)N[C@@H](CO)C(=O)N[C@@H](Cc1ccc(O)cc1)C(=O)N[C@@H](Cc1ccc(O)cc1)C(=O)N[C@@H](CO)C(=O)O [1f],effect on endogenous α-synuclein in primary cortical cultures,[1],able to reduce the amount of endogenous α-synuclein
same,cytotoxicity to hippocampal cells,hippocampal cells,did not show cytotoxicity to hippocampal cells
